Experimental data from the CheMixHub viscosity set.
Several values for one entry are separate records, joined by “and”; a condition that tells them apart may be missing. Equal entries are not always repeated.

Columns and labels:
[1] = xn = mol fraction of the nth substance listed

CN(C)CCN(C)C
100 kPa
Conditions	viscosity [mPa·s]
293.15 K	0.615
303.15 K	0.557
313.15 K	0.493
323.15 K	0.439

CCCCCCn1cc[n+](C)c1.[Cl][Fe-]([Cl])([Cl])[Cl]
101 kPa
Conditions	viscosity [mPa·s]
293.15 K	73.92
298.15 K	58.96
303.15 K	47.89
308.15 K	39.56
313.15 K	33.07
318.15 K	28.06
323.15 K	24.02

CCCCCCC(C)O (stereo not given)
viscosity
Conditions	298.15 K	303.15 K	308.15 K
101 kPa	6.49 mPa·s	–	–
101.3 kPa	5.929 mPa·s and 5.956 mPa·s	4.794 mPa·s and 4.803 mPa·s	3.909 mPa·s and 3.907 mPa·s
101.33 kPa	–	4.804 mPa·s	–

CCCCCCn1cc[n+](C)c1.[Cl][Fe-]([Cl])([Cl])[Cl] + CCOC(C)=O
viscosity [mPa·s], [1], 101 kPa
Conditions	x1 = 0.093	x1 = 0.1851	x1 = 0.2815	x1 = 0.377	x1 = 0.4719	x1 = 0.5799	x1 = 0.6752	x1 = 0.7764	x1 = 0.8869
293.15 K	1.14	2.3	4.29	7.45	11.71	18.13	26.64	36.57	51.89
298.15 K	1.07	2.11	3.87	6.62	10.22	15.53	22.42	30.27	42.15
303.15 K	1.01	1.95	3.51	5.93	9.02	13.48	19.08	25.46	34.86
308.15 K	0.95	1.8	3.2	5.34	8.01	11.79	16.45	21.68	29.26
313.15 K	0.89	1.68	2.93	4.84	7.18	10.4	14.33	18.64	24.83
318.15 K	0.85	1.57	2.7	4.42	6.46	9.26	12.6	16.23	21.38
323.15 K	0.8	1.47	2.5	4.05	5.85	8.3	11.15	14.24	18.51

CCCCCCC(C)O (stereo not given) + Clc1ccccc1
viscosity [mPa·s], [1], 101 kPa
Conditions	298.15 K	303.15 K
x2 = 0.0637	5.573	4.507
x2 = 0.1236	4.736	3.906
x2 = 0.1894	3.906	3.291
x2 = 0.2474	3.319	2.818
x2 = 0.3131	2.772	2.369
x2 = 0.374	2.378	1.981
x2 = 0.4525	1.947	1.641
x2 = 0.5014	1.737	1.467
x2 = 0.5867	1.452	1.238
x2 = 0.6813	1.203	1.08
x2 = 0.7429	1.085	1
x2 = 0.8098	0.968	0.929
x2 = 0.8776	0.872	0.867
x2 = 0.9446	0.803	0.786

c1cn[nH]c1 + c1ccccc1
viscosity [mPa·s], [1], 101 kPa
Conditions	x1 = 0.02244	x1 = 0.04519	x1 = 0.05005	x1 = 0.1006
303.15 K	0.577	0.597	0.594	0.627
323.15 K	0.449	0.46	0.462	–

c1c[nH]cn1 + CC(=O)O
[1], 101 kPa, x1 = 0.5
Conditions	viscosity [mPa·s]
303.15 K	54
323.15 K	20

CC(O)CCO (stereo not given) + CN(C)C=O
[1], 308.15 K, 101 kPa
Conditions	viscosity [mPa·s]
x1 = 0.0531	0.762
x1 = 0.1	0.87
x1 = 0.1985	1.178
x1 = 0.3069	1.688
x1 = 0.4018	2.399
x1 = 0.4993	3.462
x1 = 0.6107	6.621
x1 = 0.6844	9.795
x1 = 0.7882	17.12
x1 = 0.8916	28.94
x1 = 0.9544	38.83

Cc1cc[n+](CCCO)cc1.[Cl-] + O
viscosity [mPa·s], [1], 100 kPa
Conditions	x1 = 0.001799	x1 = 0.00269	x1 = 0.003585	x1 = 0.005375	x1 = 0.007144	x1 = 0.008904
293.15 K	1.067	1.092	1.116	1.161	1.204	1.244
298.15 K	0.942	0.963	0.984	1.022	1.059	1.094
303.15 K	0.84	0.859	0.876	0.911	0.943	0.974
308.15 K	0.756	0.772	0.787	0.818	0.847	0.875
313.15 K	0.685	0.699	0.713	0.741	0.767	0.792

C[N+](C)(CCO)CCO.[Cl-] + NC(N)=O
[1], 100 kPa, x1 = 0.5
Conditions	viscosity [mPa·s]
293.15 K	3865
298.15 K	2440
303.15 K	1596
308.15 K	1065
313.15 K	724
318.15 K	514
323.15 K	368

c1ccncc1 + CO
[1], 298 K, 101.3 kPa
Conditions	viscosity [mPa·s]
x2 = 0.1249	0.85
x2 = 0.2338	0.82
x2 = 0.4192	0.763
x2 = 0.5695	0.714
x2 = 0.694	0.67
x2 = 0.7987	0.631
x2 = 0.8881	0.596
x2 = 0.9652	0.565

c1ccncc1 + Cc1ccccc1C
viscosity [mPa·s], [1], 101 kPa
Conditions	x2 = 0.1002	x2 = 0.2001	x2 = 0.2999	x2 = 0.3993	x2 = 0.4968	x2 = 0.6002	x2 = 0.6992	x2 = 0.7985	x2 = 0.8945
293.15 K	0.9083	0.8811	0.8575	0.8434	0.8268	0.806	0.7925	0.7798	0.7769
303.15 K	0.7933	0.7696	0.7498	0.7375	0.721	0.7069	0.6976	0.6881	0.6804
313.15 K	0.7	0.6779	0.6586	0.6456	0.63	0.6195	0.6097	0.6015	0.595
323.15 K	0.6145	0.5949	0.5776	0.5654	0.5525	0.5433	0.5347	0.528	0.5228

[K+].[K+].[O]=[Cr](=[O])([O-])[O][Cr](=[O])(=[O])[O-] + O
viscosity [mPa·s], [1], 101 kPa
Conditions	x1 = 0.001	x1 = 0.003	x1 = 0.0068	x1 = 0.015
298.15 K	0.89	0.9	0.91	–
312.95 K	0.66	0.67	0.68	0.73
